From patent publication EP4389751A1, “HETEROCYCLIC COMPOUNDS AND USES THEREOF” (Kumquat Biosciences Inc., priority 2021, dated 2024)
Where two headings read alike, the source gives them in different places.

Assays:
[1] = biological target: T1, K-Ras G12S (Homo sapiens, UniProt P01116, G12S); experiment: HTRF assay of the K-Ras / SOS1 interaction; type: biochemical; conditions: IC50 (against K-Ras G12D) to IC50 (against K-Ras G12S)
T1 construct: made in house; host or cells: E. coli (e.g., BL21 (DE3))
Procedure, shortened: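 Compounds (duplicates, 10 µM to 0.01 µM) were incubated ≥~10 min with Eu-labelled GST-K-Ras G12S and XL665-labelled His-hSOS1 in HEPES pH 7.4 buffer containing NaCl, DTT, BSA and Igepal. Disruption measured as HTRF emission ratio 665/620 nm, fitted to IC50.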

[2] = system: GP2D cells; experiment: Cell proliferation assay (CellTiter-Glo), K-Ras G12D cells; type: cell-based; conditions: read-out: Inhibition of GP2D Cells (IC50)
Experimental: ASPC-1 (ATCC CRL-1682), Panc-10.05 (ATCC CRL-2547), A427, and GP2D (Sigma 95090714) cell lines comprise a G12D mutation and can be used to assess Ras cellular signaling in vitro, e.g., in response to the compounds herein. […] ASPC-1 culture medium is prepared with RPMI-1640 and 10% heat-inactivated FBS. Panc-10.05 culture medium is prepared with RPMI-1640, 10 Units/ml human recombinant insulin, and 10% FBS. A427 cell culture is prepared with RPMI-1640 and 10% heat-inactivated FBS. GP2D culture medium is prepared with DMEM with 2mM glutamine and 10% heat-inactivated FBS. A Cell Titer-Glo (CTG) luminescent based assay (Promega) is used to assess growth of the cells, as a measurement of the ability of the compounds herein to inhibit Ras signaling in the cells. The cells (e.g., 800 per well) are seeded in their respective culture medium in standard tissue culture-treated 384-well format plates (Falcon #08-772-116) or ultra-low attachment surface 384-well format plates (S-Bio # MS-9384UZ ). The day after plating, cells are treated with a dilution series (e.g., a 9 point 3-fold dilution series) of the compounds herein (e.g., approximately 40 µl final volume per well). Cell viability can be monitored (e.g., approximately 5 days later) according to the manufacturer's recommended instructions, where the CellTiter-Glo reagent is added (e.g., approximately 10 µl), vigorously mixed, covered, and placed on a plate shaker (e.g., approximately for 20 min) to ensure sufficient cell lysis prior to assessment of luminescent signal. The IC50 values are determined using the four parameter fit. The resulting IC50 value is a measurement of the ability of the compounds herein to reduce cell growth of Ras-driven cells (e.g., tumor cell lines) in vitro and/or in vivo.

With “2-amino-4-(6-chloro-8-fluoro-2-(((2R,7aS)-2-fluorotetrahydro-1H-pyrrolizin-7 a(5H)-yl)methoxy)-4-(8-(4-methyl-1H-1,2,3-triazole-1-carbonyl)-3,8-diazabicyclo[3.2.1]octan-3-yl)quinazolin-7-yl)-7-fluorobenzo[b]thiophene-3-carbonitrile [Compound A189]” the “Ratio of IC50 KRAS G12D vs. IC50 KRAS G12S” value (“Ratio” below) [1] was “A (A: indicates that the ratio of IC50 against KrasG12D vs. IC50 against KrasG12S is 1-fold or greater)” and the IC50 ([2]; GP2D cells (K-Ras G12D)) was no more than 1000 nM.

With `Nc1nc2c(-c3c(Cl)cc4c(N5CC6CCC(C5)N6C(=O)n5cc(F)cn5)nc(OC[C@@]56CCCN5C[C@H](F)C6)nc4c3F)ccc(F)c2s1` [Compound A101, (3-(7-(2-amino-7-fluorobenzo[d]thiazol-4-yl)-6-chloro-8-fluoro-2-(((2R,7aS)-2-fluorotetrahydro-1H-pyrrolizin-7a(5H)-yl)methoxy)quinazolin-4-yl)-3,8-diazabicyclo[3.2.1]octan-8-yl)(4-fluoro-1H-pyrazol-1-yl)methanone] the “Ratio” value [1] was “A (A: indicates that the ratio of IC50 against KrasG12D vs. IC50 against KrasG12S is 1-fold or greater)” and the IC50 ([2]; GP2d) was 1000 to 10000 nM.

In the case of `N#Cc1cnn(C(=O)N2CC3CCC(C2)N3c2nc(OC[C@@]34CCCN3C[C@H](F)C4)nc3c(F)c(-c4ccc(F)c5sc(N)nc45)c(Cl)cc23)c1` [Compound A112, 1-(8-(7-(2-amino-7-fluorobenzo[d]thiazol-4-yl)-6-chloro-8-fluoro-2-(((2R,7aS)-2-fluorotetrahydro-1H-pyrrolizin-7a(5H)-yl)methoxy)quinazolin-4-yl)-3,8-diazabicyclo[3.2. 1]octane-3-carbonyl)-1H-pyrazole-4-carbonitrile], the “Ratio” value [1] is reported as “A (A: indicates that the ratio of IC50 against KrasG12D vs. IC50 against KrasG12S is 1-fold or greater)” and the IC50 ([2]; GP2d) is reported as no more than 1000 nM.

For `Nc1nc2c(-c3c(Cl)cc4c(NC5CCN(C(=O)n6ccnc6)CC5)nc(OC[C@@]56CCCN5C[C@H](F)C6)nc4c3F)ccc(F)c2s1` [Compound A117, (4-((7-(2-amino-7-fluorobenzo[d]thiazol-4-yl)-6-chloro-8-fluoro-2-(((2R,7aS)-2-fluorotetrahydro-1H-pyrrolizin-7a(5H)-yl)methoxy)quinazolin-4-yl)amino)piperidin-1-yl)(1H-imidazol-1-yl)methanone], the “Ratio” value [1] was “A (A: indicates that the ratio of IC50 against KrasG12D vs. IC50 against KrasG12S is 1-fold or greater)” and the IC50 ([2]; GP2D cells (K-Ras G12D)) was 1000 to 10000 nM.

With `N#Cc1cccn1C(=O)N1C2CCC1CN(c1nc(OC[C@@]34CCCN3C[C@H](F)C4)nc3c(F)c(-c4ccc(F)c5sc(N)nc45)c(Cl)cc13)C2` [Compound A121, 1-(3-(7-(2-amino-7-fluorobenzo[d]thiazol-4-yl)-6-chloro-8-fluoro-2-(((2R,7aS)-2-fluorotetrahydro-1H-pyrrolizin-7a(5H)-yl)methoxy)quinazolin-4-yl)-3,8-diazabicyclo[3.2. 1]octane-8-carbonyl)-1H-pyrrole-2-carbonitrile] the “Ratio” value [1] was “A (A: indicates that the ratio of IC50 against KrasG12D vs. IC50 against KrasG12S is 1-fold or greater)” and the IC50 ([2]; GP2d) was no more than 1000 nM.

For `Nc1nc2c(-c3c(Cl)cc4c(N5CC6CCC(C5)N6C(=O)Nc5cncnc5)nc(OC[C@@]56CCCN5C[C@H](F)C6)nc4c3F)ccc(F)c2s1` [Compound A124, 3-(7-(2-amino-7-fluorobenzo[d]thiazol-4-yl)-6-chloro-8-fluoro-2-(((2R,7aS)-2-fluorotetrahydro-1H-pyrrolizin-7a(5H)-yl)methoxy)quinazolin-4-yl)-N-(pyrimidin-5-yl)-3,8-diazabicyclo[3.2. 1]octane-8-carboxamide], the “Ratio” value [1] was “A (A: indicates that the ratio of IC50 against KrasG12D vs. IC50 against KrasG12S is 1-fold or greater)” and the IC50 ([2]; GP2d) was no more than 1000 nM.

`Nc1nc2c(-c3c(Cl)cc4c(N5CC6CCC(C5)N6C(=O)n5cccn5)nc(OC[C@@]56CCCN5C[C@H](F)C6)nc4c3F)ccc(F)c2s1` [Compound A130, (3-(7-(2-amino-7-fluorobenzo[d]thiazol-4-yl)-6-chloro-8-fluoro-2-(((2R,7aS)-2-fluorotetrahydro-1H-pyrrolizin-7a(5H)-yl)methoxy)quinazolin-4-yl)-3,8-diazabicyclo[3.2.1]octan-8-yl)(1H-pyrazol-1-yl)methanone] was tested, and the “Ratio” value [1] was “A (A: indicates that the ratio of IC50 against KrasG12D vs. IC50 against KrasG12S is 1-fold or greater)” and the IC50 ([2]; GP2d) was 1000 to 10000 nM.

In the case of `Nc1nc2c(-c3c(Cl)cc4c(N5CC6CCC(C5)N6C(=O)n5cnc(F)c5)nc(OC[C@@]56CCCN5C[C@H](F)C6)nc4c3F)ccc(F)c2s1` [Compound A135, (3-(7-(2-amino-7-fluorobenzo[d]thiazol-4-yl)-6-chloro-8-fluoro-2-(((2R,7aS)-2-fluorotetrahydro-1H-pyrrolizin-7a(5H)-yl)methoxy)quinazolin-4-yl)-3,8-diazabicyclo[3.2.1]octan-8-yl)(4-fluoro-1H-imidazol-1-yl)methanone], the “Ratio” value [1] is reported as “A (A: indicates that the ratio of IC50 against KrasG12D vs. IC50 against KrasG12S is 1-fold or greater)” and the IC50 ([2]; GP2d) is reported as no more than 1000 nM.

In the case of `N#Cc1c(N)sc2c(F)ccc(-c3c(Cl)cc4c(N5CC6CCC(C5)N6C(=O)n5cccc5C#N)nc(OC[C@@]56CCCN5C[C@H](F)C6)nc4c3F)c12` [Compound A138, 1-(3-(7-(2-amino-3-cyano-7-fluorobenzo[b]thiophen-4-yl)-6-chloro-8-fluoro-2-(((2R,7aS)-2-fluorotetrahydro-1H-pyrrolizin-7a(5H)-yl)methoxy)quinazolin-4-yl)-3,8-diazabicyclo[3.2. 1]octane-8-carbonyl)-1H-pyrrole-2-carbonitrile], the “Ratio” value [1] is reported as “A (A: indicates that the ratio of IC50 against KrasG12D vs. IC50 against KrasG12S is 1-fold or greater)” and the IC50 ([2]; GP2d) is reported as no more than 1000 nM.

In the case of `Nc1nc2c(-c3c(Cl)cc4c(N5CCCC56CCCN(C(=O)n5cncn5)C6)nc(OC[C@@]56CCCN5C[C@H](F)C6)nc4c3F)ccc(F)c2s1` (stereo partly drawn) [Compound A144, (1-(7-(2-amino-7-fluorobenzo[d]thiazol-4-yl)-6-chloro-8-fluoro-2-(((2R,7aS)-2-fluorotetrahydro-1H-pyrrolizin-7a(5H)-yl)methoxy)quinazolin-4-yl)-1,7-diazaspiro[4.5]decan-7-yl)(1H-1,2,4-triazol-1-yl)methanone], the “Ratio” value [1] is reported as “A (A: indicates that the ratio of IC50 against KrasG12D vs. IC50 against KrasG12S is 1-fold or greater)” and the IC50 ([2]; GP2D cells (K-Ras G12D)) is reported as 1000 to 10000 nM.

With `Cc1cnn(C(=O)N2CCN(c3nc(OC[C@@]45CCCN4C[C@H](F)C5)nc4c(F)c(-c5ccc(F)c6sc(N)nc56)c(Cl)cc34)CC2)c1` [Compound A149, (4-(7-(2-amino-7-fluorobenzo[d]thiazol-4-yl)-6-chloro-8-fluoro-2-(((2R,7aS)-2-fluorotetrahydro-1H-pyrrolizin-7a(5H)-yl)methoxy)quinazolin-4-yl)piperazin-1-yl)(4-methyl-1H-pyrazol-1-yl)methanone] the “Ratio” value [1] was “A (A: indicates that the ratio of IC50 against KrasG12D vs. IC50 against KrasG12S is 1-fold or greater)” and the IC50 ([2]; GP2D cells (K-Ras G12D)) was 1000 to 10000 nM.

In the case of `N#Cc1cnn(C(=O)N2CCC(Nc3nc(OC[C@@]45CCCN4C[C@H](F)C5)nc4c(F)c(-c5ccc(F)c6sc(N)nc56)c(Cl)cc34)CC2)c1` [Compound A151, 1-(4-((7-(2-amino-7-fluorobenzo[d]thiazol-4-yl)-6-chloro-8-fluoro-2-(((2R,7aS)-2-fluorotetrahydro-1H-pyrrolizin-7a(5H)-yl)methoxy)quinazolin-4-yl)amino)piperidine-1-carbonyl)-1H-pyrazole-4-carbonitrile], the “Ratio” value [1] is reported as “A (A: indicates that the ratio of IC50 against KrasG12D vs. IC50 against KrasG12S is 1-fold or greater)” and the IC50 ([2]; GP2D cells (K-Ras G12D)) is reported as 1000 to 10000 nM.

`Nc1nc2c(-c3c(Cl)cc4c(NCCN5CCN(C(=O)n6cncn6)CC5)nc(OC[C@@]56CCCN5C[C@H](F)C6)nc4c3F)ccc(F)c2s1` [Compound A156, (4-(2-((7-(2-amino-7-fluorobenzo[d]thiazol-4-yl)-6-chloro-8-fluoro-2-(((2R,7aS)-2-fluorotetrahydro-1H-pyrrolizin-7a(5H)-yl)methoxy)quinazolin-4-yl)amino)ethyl)piperazin-1-yl)(1H-1,2,4-triazol-1-yl)methanone] was tested, and the “Ratio” value [1] was “A (A: indicates that the ratio of IC50 against KrasG12D vs. IC50 against KrasG12S is 1-fold or greater)” and the IC50 ([2]; GP2D cells (K-Ras G12D)) was 1000 to 10000 nM.
